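Tested at 5 concentrations; 48 h exposure; 96-well plates; endpoints linearly interpolated, else capped at highest concentration. At the TGI there is no net growth.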
Legend:
Assay in all cases: growth of human tumour cells (NCI), 48 h
SNB-19 CNS = tested on: SNB-19 CNS
UACC-62 melanoma = tested on: UACC-62 melanoma
SW-620 colon = tested on: SW-620 colon
MDA-N = tested on: MDA-N
HOP-62 NSCLC = tested on: HOP-62 NSCLC
T-47D breast = tested on: T-47D breast
SF-539 CNS = tested on: SF-539 CNS
SK-MEL-28 melanoma = tested on: SK-MEL-28 melanoma
ACHN renal = tested on: ACHN renal
MALME-3M melanoma = tested on: MALME-3M melanoma
BT-549 breast = tested on: BT-549 breast
OVCAR-4 ovarian = tested on: OVCAR-4 ovarian
SK-MEL-5 melanoma = tested on: SK-MEL-5 melanoma
HCT-15 colon = tested on: HCT-15 colon
NCI-H226 lung = tested on: NCI-H226 lung
A498 renal = tested on: A498 renal

Row | Compound | TGI (SNB-19 CNS) [µM] | TGI (UACC-62 melanoma) [µM] | TGI (SW-620 colon) [µM] | TGI (MDA-N) [µM] | TGI (HOP-62 NSCLC) [µM] | TGI (T-47D breast) [µM] | TGI (SF-539 CNS) [µM] | TGI (SK-MEL-28 melanoma) [µM] | TGI (ACHN renal) [µM] | TGI (MALME-3M melanoma) [µM] | TGI (BT-549 breast) [µM] | TGI (OVCAR-4 ovarian) [µM] | TGI (SK-MEL-5 melanoma) [µM] | TGI (HCT-15 colon) [µM] | TGI (NCI-H226 lung) [µM] | TGI (A498 renal) [µM]
1 | COc1ccc(C(OCC2OC(n3cc(C)c(=O)[nH]c3=O)CC2n2cc(Cn3cc(Br)c(=O)[nH]c3=O)nn2)(c2ccccc2)c2ccccc2)cc1 (stereo not given) | > 100 | > 100 | > 100 | > 100 | > 100 | > 100 | > 100 | > 100 | > 100 | > 100 | > 100 | > 100 | > 100 | > 100 | > 100 | > 100
2 | COC(=O)C1(OC(=O)Sc2ccccc2)CCN(C)CC1 | > 100 | > 64.7 | 54.9 | 49.4 | > 66.6 | > 100 | 26.5 | > 100 | > 54.1 | > 100 | 7.04 | > 100 | > 70.4 | > 63.1 | 35.7 | 45.8
3 | Cc1ccc(-c2cc(-c3ccc(Cl)cc3)nc(/N=C3\C(=O)N(CN4CCOCC4)c4ccc(Cl)cc43)n2)cc1 | > 100 | 93.2 | > 100 | > 100 | 51.8 | 79.8 | 59.5 | > 100 | 48.5 | > 100 | > 100 | > 100 | 38.4 | > 100 | > 100 | 56.7
4 | COc1cccc2c1C(=O)c1c(O)c3c(c(O)c1C2=O)C[C@@](O)(C(=O)CO)C[C@@H]3OC1CC(N)C(OC)C(C)O1 (stereo not given in full) | > 15.8 | 0.227 | 4.05 | 36.2 | 0.354 | 1.73 | 0.449 | 1.9 | 0.765 | 0.283 | 1.47 | 9.67 | 0.189 | 13.2 | 0.47 | 0.582
5 | CCCCn1c(C)c2c(c1C)C(=O)N(CC(O)CN1CCc3ccccc3C1)C2=O (stereo not given) | > 100 | > 100 | > 100 | > 100 | > 100 | > 100 | > 100 | > 100 | > 100 | > 100 | > 100 | > 100 | > 100 | > 100 | > 100 | > 100
6 | O=C1C[C@H]2[C@@H](O1)[C@@H](O)CN1C(=O)c3ccccc3[C@H]21 | > 100 | > 100 | > 100 | > 100 | > 100 | > 100 | > 100 | > 100 | > 100 | > 100 | > 100 | > 100 | > 100 | > 100 | > 100 | > 100
7 | COc1cc(C2SCC(=O)N2c2ccc(Cl)c(Cl)c2)cc(OC)c1OC (stereo not given) | > 100 | > 21.9 | > 100 | 45.9 | > 100 | > 63.6 | > 100 | > 100 | > 100 | > 100 | 98 | > 100 | > 100 | > 100 | > 79.4 | > 100
8 | CC(NNC(=O)CC(=O)N(C(=O)c1ccccc1)c1ccc(Cl)cc1)c1cc2ccccc2oc1=O (stereo not given) | > 10 | > 10 | > 10 | > 10 | > 10 | > 10 | > 10 | > 10 | > 10 | > 10 | > 10 | > 10 | > 10 | > 10 | > 10 | > 10
9 | N#C/C(N)=C(\C#N)NC=NCc1ccccc1 | > 100 | > 100 | > 100 | > 100 | > 100 | > 100 | > 100 | > 100 | > 100 | > 100 | > 100 | > 100 | > 100 | > 100 | > 100 | > 100
10 | COc1ccc(C(=O)/C=C/c2ccncc2)cc1OC | 32.5 | 30 | – | 26.2 | 29.9 | 30.9 | 22.1 | 31.7 | 28.1 | 32.5 | 18.6 | 23.2 | 30.7 | 28.7 | 30.6 | 30.9
11 | O=C(c1cc(Cl)cc(Cl)c1)N1CCN(C(=O)c2cc(Cl)cc(Cl)c2)C1=S | 37.1 | 23.5 | > 50.5 | 34.5 | 33.8 | 45.2 | 22.7 | > 54.5 | 29.6 | 25.5 | 70.8 | 38.4 | 33.7 | 31 | 49.8 | 31.6
12 | C[C@H]1C2Cc3cc(N)ccc3[C@@]1(C)CCN2CCc1ccccc1 | > 100 | > 100 | > 100 | > 100 | > 100 | > 100 | > 100 | > 100 | > 100 | 54 | > 100 | > 100 | 37.2 | > 100 | > 100 | > 100
13 | COc1ccc(CN(Cc2ccc(OC)cc2)C(=O)CC2(O)C=CCC2)cc1 (stereo not given) | > 100 | > 100 | > 100 | > 100 | > 100 | > 100 | > 100 | > 100 | > 100 | > 100 | > 100 | > 100 | > 100 | > 100 | > 100 | > 100
14 | CC(=O)Nc1ccc(-c2nc3cc(Cl)ccc3o2)cc1 | > 50 | > 50 | > 50 | > 50 | > 50 | > 50 | > 50 | > 50 | > 50 | > 50 | > 50 | > 50 | > 50 | > 50 | > 50 | > 50
15 | CCCCCC(/C=C/C1CCC(=O)C1CC#C[Si](C)(C)C)OCc1ccccc1 (stereo not given) | > 84.8 | 30.6 | > 57 | 42.6 | 41.5 | 85.1 | 46.2 | > 58 | 31.6 | 37.8 | 33.8 | > 71.8 | 27.9 | 30.1 | > 94.7 | > 85.8
16 | CSc1ncnc2c1cnn2CCCCO | > 100 | > 100 | > 100 | > 100 | > 100 | > 100 | > 100 | > 100 | > 100 | > 100 | > 100 | > 100 | > 100 | > 100 | > 100 | > 100
